Results on 15 compounds are retold here after ChEMBL document CHEMBL1134200, “Pimarane cyclooxygenase 2 (COX-2) inhibitor and its structure-activity relationship” (Bioorg Med Chem Lett, 2001).

This experiment deals with T1, Prostaglandin G/H synthase 2 (Ovis aries, UniProt P79208).
T1 sequence (P79208 whole entry): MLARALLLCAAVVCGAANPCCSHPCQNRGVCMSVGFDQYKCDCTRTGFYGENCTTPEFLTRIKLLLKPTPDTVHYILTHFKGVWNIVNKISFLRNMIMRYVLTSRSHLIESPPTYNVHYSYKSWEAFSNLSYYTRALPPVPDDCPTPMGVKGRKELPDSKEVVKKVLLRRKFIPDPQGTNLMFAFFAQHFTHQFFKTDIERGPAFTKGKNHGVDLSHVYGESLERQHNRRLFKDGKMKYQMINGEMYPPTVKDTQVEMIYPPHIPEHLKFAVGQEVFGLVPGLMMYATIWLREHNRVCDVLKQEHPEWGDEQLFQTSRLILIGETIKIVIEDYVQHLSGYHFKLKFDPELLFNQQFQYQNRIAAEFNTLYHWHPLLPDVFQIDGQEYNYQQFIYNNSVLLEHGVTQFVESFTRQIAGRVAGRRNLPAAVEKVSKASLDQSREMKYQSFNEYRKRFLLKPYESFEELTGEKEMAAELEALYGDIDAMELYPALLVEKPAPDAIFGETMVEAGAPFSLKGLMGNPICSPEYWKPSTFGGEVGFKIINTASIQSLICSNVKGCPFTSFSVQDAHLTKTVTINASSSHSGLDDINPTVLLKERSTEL
As to the kind of experiment: Inhibitory activity against Prostaglandin G/H synthase 2 from sheep placental cotyledons.

On to `C=C[C@@]1(C)CC=C2C(CCC3[C@](C)(CC(=O)O)CCC[C@@]23C)C1` (stereo not given in full), for which the half-inhibitory concentration (IC50) is 82.3 µM.
The value for `C[C@]1(CCF)CC=C2C(CCC3[C@](C)(C(=O)O)CCC[C@@]23C)C1` (stereo not given in full) was over 1000 µM; that for `C[C@]1(CC(F)F)CC=C2C(CCC3[C@](C)(C(=O)O)CCC[C@@]23C)C1` (stereo not given in full) was 796 µM.
The value for `COCC[C@@]1(C)CC=C2C(CCC3[C@](C)(C(=O)O)CCC[C@@]23C)C1` (stereo not given in full) was over 1000 µM; that for `C=C[C@@]1(C)CC=C2C(CCC3[C@](C)(CCC/C=C/C(=O)O)CCC[C@@]23C)C1` (stereo not given in full) was 13.2 µM.
On to `C=C[C@@]1(C)CC=C2C(CCC3[C@](C)(CCC(=O)O)CCC[C@@]23C)C1` (stereo not given in full), for which the IC50 was found to be 105 µM.
As for `C=C[C@@]1(C)CC=C2C(CCC3[C@](C)(C(N)=O)CCC[C@@]23C)C1` (stereo not given in full), the figure is over 1000 µM.
The value for `C=C[C@@]1(C)CC=C2C(CCC3[C@](C)(C(=O)NO)CCC[C@@]23C)C1` (stereo not given in full) was 819 µM; that for `C=C[C@@]1(C)CC=C2C(CCC3[C@](C)(C(=O)OC)CCC[C@@]23C)C1` (stereo not given in full) was over 1000 µM.
As for `C[C@@]1(C2CO2)CC2CCC3[C@](C)(C(=O)O)CCC[C@@]3(C)[C@@]23O[C@H]3C1` (stereo not given in full), the figure is over 1000 µM.
The compound `C[C@]1(CCF)CC=C2C(CCC3[C@](C)(C(=O)F)CCC[C@@]23C)C1` (stereo not given in full) had an IC50 of 194 µM.
The value for `CC(=O)OCC[C@@]1(C)CC=C2C(CCC3[C@](C)(C(=O)O)CCC[C@@]23C)C1` (stereo not given in full) was over 1000 µM.
`C[C@]1(CCO)CC=C2C(CCC3[C@](C)(C(=O)O)CCC[C@@]23C)C1` (stereo not given in full): the IC50 is over 1000 µM.
As for `CC[C@@]1(C)CC=C2C(CCC3[C@](C)(C(=O)O)CCC[C@@]23C)C1` (stereo not given in full), the figure is 425 µM.
Take `C=C[C@@]1(C)CC=C2C(CCC3[C@](C)(CO)CCC[C@@]23C)C1` (stereo not given in full) [ACANTHOL]: the IC50 is over 1000 µM.

For orientation: IC50 means the concentration that gives 50% inhibition. A lower IC50 goes with inhibition by little substance.
